Experimental data reported in patent publication US20140243415A1, “COMPOUNDS INHIBITING GALECTIN-1 EXPRESSION, CANCER CELL PROLIFERATION, INVASION, AND TUMORIGENESIS” (ONCOETHIX SA, priority 2011, published 2014).

Key:
Assay type in all cases: cell-based, human
[1] = system: COL0205-S and COL0205-R cells; assay: Antiproliferative effects, epithelial vs mesenchymal COLO205
Text: (§1) FIG. 2. Epithelial-to-mesenchymal differentiation and OTX-008 sensitivity. A—Correlations between galectin-1 (LGALS1) and vimentin, E-cadherin (CDH1) and N-cadherin (CDH2) relative mRNA expression. B—Correlations between OTX-008 IC50s and vimentin, E-cadherin (CDH1) and N-cadherin (CDH2) relative mRNA expression. C—Antiproliferative effects of OTX-008 in epithelial COLO205-S and mesenchymal COLO205-R colon cancer cells. D—Antiproliferative effects of OTX-008 in SNAIL-inducible colon cancer cell lines. E—Antiproliferative effects of OTX-008 in shWISP breast cancer cell lines.
(§2) Cell survival was determined using the MTT assay (3-[4,5-dimethylthiazol-2-yl]-2,5-diphenyltetrazolium bromide; Sigma, Saint-Quentin Fallavier, France). The conversion of yellow water-soluble tetrazolium MTT into purple insoluble formazan is catalyzed by mitochondrial dehydrogenases and used to estimate the number of viable cells. In brief, cells were seeded in 96-well tissue culture plates at a density of 2×10^3 cells/well. […] After incubation, the supernatant was discarded, insoluble formazan precipitates were dissolved in 0.1 ml of DMSO and the absorbance was measured at 560 nm by use of a microplate reader (Thermo, France). […] IC50's were determined as the halves of maximal inhibitory drug concentration for each cell line. […]

SQ20B cells = assay: Matrigel invasion assay
Method: FIG. 5. Modulation of the galectin-1/semaphorin-3A/neuropilin system in SQ20B cells. A—Effects of galectin-1 (Gall), semaphorin-3A (Sema3A), lactose, with or without four different concentrations of OTX-008 on SQ20B growth at day 6. Embedded figure: Proliferation assay of SQ20B and SQ-shGAL1. B—In vitro matrigel invasion assay of SQ20B exposed to […] galectin-1, 1 μg/ml semaphorin-3A, 200 ng/ml lactose or 10 μM UO126 with or without 3 μM OTX-008. Embedded figure: In vitro matrigel invasion assay of SQ20B and SQ-shGAL1. Invasion was quantified after 48 h by counting the average number of invaded cells.
8 μm membranes were coated with Matrigel (50 μg). The inserts were placed within a 24-well chamber containing 0.6 ml of RPMI 1640 medium with 20% fetal bovine serum as chemoattractant. 10^5 cells were seeded into the inserts suspended in 0.3 ml of serum-free RPMI. After incubation for 48 h at 37° C., the upper surface of the filter was scraped to remove non-invasive cells. Invasive cells were fixed and stained with a Diff Quik detection Kit (Dade Behring, Paris, France). For quantification, the average number of invading cells per field was assessed by counting 9 random fields under a light microscope (400×).
Galectin-1 may form extracellular lattices counteracting the inhibitory properties of semaphorin-3A on neuropilin-1, eventually leading to the modulation of the vascular endothelial growth factor (VEGFR) and platelet derived growth factor (PDGFR) receptors, fibronectin, and laminin activity SQ20B cells expressed significant mRNA and protein levels of semaphorin-3A and neuropilin-1, PDGFRa&(, VEGF A-D, and VEGFR1-3 (Supplementary FIG. 2A). Thus, SQ20B cells were selected to evaluate the effects of OTX-008 on galectin-1/semaphorin-3A interactions. No difference between SQ20B cells growing in plastic or fibronectin- and laminin-coated plates. […] Galectin-1 and semaphorin-3A induced invasion was inhibited by OTX-008 mimicking the effects of lactose in this model.

SQ20B = assay: MTT cell cytotoxicity assay
Method: (§3) Cell survival was determined using the MTT assay (3-[4,5-dimethylthiazol-2-yl]-2,5-diphenyltetrazolium bromide; Sigma, Saint-Quentin Fallavier, France). The conversion of yellow water-soluble tetrazolium MTT into purple insoluble formazan is catalyzed by mitochondrial dehydrogenases and used to estimate the number of viable cells. In brief, cells were seeded in 96-well tissue culture plates at a density of 2×10^3 cells/well. After 72 h drug exposure and 48 h wash-out, cells were incubated with 0.4 mg/ml MTT for 4 hours at 37° C. After incubation, the supernatant was discarded, insoluble formazan precipitates were dissolved in 0.1 ml of DMSO and the absorbance was measured at 560 nm by use of a microplate reader (Thermo, France). Wells with untreated cells or with drug-containing medium without cells were used as positive and negative controls respectively. IC50's were determined as the halves of maximal inhibitory drug concentration for each cell line.
(§4) The antiproliferative effects of OTX-008 and anginex were assessed using MTT assay in a panel of human cancer cell lines of human origins expressing various levels of Lgals-1 mRNA and galectin-1 protein expressions (Supplementary Table 1). […] Remaining cell lines were less sensitive to OTX-008 with GI50 values >9 μM. […] No correlation between mRNA expressions of galectin-2, galectin-3, and galectin-8 as well as semaphorin-3A, semaphorin-3B, neuropilin-1, VEGFR1-3, VEGFA-D, and PDGFRa&P3 and sensitivity to OTX-008 were detected in the panel.

A2780-1A9 = assay: MTT cell cytotoxicity assay
Method: as §3, §4

OVCAR3 = assay: MTT cell cytotoxicity assay; settings: 72 h drug exposure and 48 h wash-out
Method: as §3, §4

[2] = system: DLD-1TR21 colon cancer cells; assay: Antiproliferative effects, SNAIL-inducible model; settings: SNAIL-inducible DLD-1TR21
Text: as §1, §2

[3] = 72 h drug exposure and 48 h wash-out

Compound: CN(C)CCNC(=O)COc1c2cccc1Cc1cccc(c1OCC(=O)NCCN(C)C)Cc1cccc(c1OCC(=O)NCCN(C)C)Cc1cccc(c1OCC(=O)NCCN(C)C)C2 [OTX-008]
- activity in epithelial vs mesenchymal cells [1]: markedly more active in COL0205-S cells than in COL0205-R cells
- invasion of SQ20B cells, agent alone (SQ20B cells; 48 h, 1 g/ml galectin-1, 1 μg/ml semaphorin-3A, 10 μM UO126, 3 μM OTX-008): inhibits proliferation and invasion
- galectin-1 and semaphorin-3A induced invasion (SQ20B cells; SQ20B, 3 μM OTX-008, 48 h): inhibited
- sensitivity to OTX-008 among the cell lines tested (SQ20B): most sensitive
- antiproliferative effects (MTT) (SQ20B; [3]): dose-dependent antiproliferative effects
- sensitivity to OTX-008 (A2780-1A9): only marginally sensitive
- antiproliferative effects (MTT) (A2780-1A9; [3]): dose-dependent antiproliferative effects
- antiproliferative effects (MTT) (OVCAR3): dose-dependent antiproliferative effects
- effect of SNAIL induction on sensitivity [2]: no impact on sensitivity
